Reference: patent US9809616B2, “Pyrimidine nucleosides and their monophosphate prodrugs for the treatment of viral infections and cancer” (Cocrystal Pharma, Inc., priority 2012, dated 2017)

Test system: Huh-7 cells
Assay: LC/MS analysis of nucleotides formed after 4 hr incubation of 50 μM drug in Huh-7 cells
Format: in vitro ADME
Details: 4 hr incubation in Huh-7 cells
Description: Shown below are two examples of the LC/MS qualitative analysis of nucleotides formed after 4 h incubation of 50 μM N^4-hydroxycytidine nucleosides and N^4-hydroxycytidine monophosphate prodrugs in Huh-7 cells.

SMILES	Metabolite 2′-F-2′-Me-U formed in cells	Metabolite 2′-F-2′-Me-UDP formed in cells	Metabolite 2′-F-2′-Me-UMP formed in cells	Metabolite 2′-OH-2′-Me-U formed in cells	Metabolite 2′-OH-2′-Me-UDP formed in cells	Metabolite 2′-OH-2′-Me-UMP formed in cells	Metabolite 36-MP formed in cells	Metabolite 36 formed in cells	Metabolite 37 in cells	also measured
C[C@@]1(F)[C@H](O)[C@@H](CO)O[C@H]1n1ccc(NO)nc1=O [Compound 39, 1-((2R,3R,4R,5R)-3-fluoro-4-hydroxy-5-(hydroxymethyl)-3-methyltetrahydrofuran-2-yl)-4-(hydroxyamino)pyrimidin-2(1H)-one]	BLOQ	BLOQ	BLOQ	–	–	–	–	–	–	Metabolite 38-MP formed in cells: BLOQ; Metabolite 38 formed in cells: BLOQ; Metabolite 39-DP formed in cells: BLOQ; Metabolite 39-MP formed in cells: BLOQ; Metabolite 39-TP formed in cells: BLOQ
C[C@@]1(O)[C@H](O)[C@@H](CO)O[C@H]1n1ccc(NO)nc1=O [Compound 37, 1-((2R,3R,4R,5R)-3,4-dihydroxy-5-(hydroxymethyl)-3-methyltetrahydrofuran-2-yl)-4-(hydroxyamino)pyrimidin-2(1H)-one]	–	–	–	BLOQ	BLOQ	BLOQ	BLOQ	BLOQ	BLOQ	Metabolite 2′-OH-2′-Me-UTP formed in cells: BLOQ; Metabolite 36-DP formed in cells: BLOQ; Metabolite 36-TP formed in cells: BLOQ; Metabolite 37-DP formed in cells: BLOQ; Metabolite 37-MP formed in cells: BLOQ
CCOC(=O)[C@H](C)NP(=O)(OC[C@H]1O[C@@H](n2ccc(NO)nc2=O)[C@](C)(F)[C@@H]1O)Oc1ccccc1 (stereo partly drawn) [Compound 51, (2S)-ethyl 2-(((((2R,3R,4R,5R)-4-fluoro-3-hydroxy-5-(4-(hydroxyamino)-2-oxopyrimidin-1(2H)-yl)-4-methyltetrahydrofuran-2-yl)methoxy)(phenoxy)phosphoryl)amino)propanoate]	BLOQ	BLOQ	BLOQ	–	–	–	–	–	–	Metabolite 51 (prodrug) in cells: 71.5 ± 2.3 pmol/10^6 cells
CCOC(=O)[C@H](C)NP(=O)(OC[C@H]1O[C@@H](n2ccc(NO)nc2=O)[C@](C)(O)[C@@H]1O)Oc1ccccc1 (stereo partly drawn) [Compound 44, (2S)-ethyl 2-(((((2R,3R,4R,5R)-3,4-dihydroxy-5-(4-(hydroxyamino)-2-oxopyrimidin-1(2H)-yl)-4-methyltetrahydrofuran-2-yl)methoxy)(phenoxy)phosphoryl)amino)propanoate]	–	–	–	BLOQ	BLOQ	BLOQ	BLOQ	BLOQ	BLOQ	Metabolite 44 (prodrug) in cells: 13.3 ± 1.7 pmol/10^6 cells
